Measured values as given in publication PMC11352258, “The Influence of Betulin and Its Derivatives on Selected Colorectal Cancer Cell Lines’ Viability and Their Antioxidant Systems” (Cells, 2024).
Where “and” joins values, the source holds several entries; their conditions need not be identical. Equal entries are not always repeated. Where two headings read alike, the source gives them in different places.

Legend:
RKO cells [1] = assay: MTT cytotoxicity assay, RKO
Description: (§1) Six colorectal cancer cell lines, RKO, HT29, DLD-1, HCT116, Caco2 and SW1116 (CRL-2577, HTB-38, CCL-221, CCL-247, HTB-37, CCL-233; ATCC, Manassas, VA, USA, respectively, for CRC lines), and one normal cell line, CCD-841CoN (CRL-1790, ATCC, USA), were routinely cultured at 37 °C in a 5% CO2 incubator (Direct Heat CO2; Thermo Scientific, Waltham, MA, USA) in cell line-appropriate culture medium according to the manufacturer’s recommendations. Eagle’s minimum essential medium (EMEM) was used to culture RKO, Caco2 and CCD-841CoN lines, while McCoy’s 5A medium was used for HT29 and HCT116 lines. DLD-1 cells were grown in RPMI-1640 medium, whereas SW1116 cells were maintained in Leibovitz’s L-15 medium. All culture media were supplemented with 10% fetal bovine serum (EuroClone, Milan, Italy), and gentamycin at the concentration […] (BioWhittaker, Lonza, Basel, Switzerland) was also applied to prevent culture contamination.
(§2) For this purpose, cells were exposed to the test compound for 24 h at concentrations of 0.1, 1, 10, 20, 50 and 100 μg/mL. Control cells were not treated with the compounds. MTT (0.25 mg/mL) was then added to the cultures and incubated for 3 h at 37 °C. After a time, the cells were washed with phosphate buffered saline (PBS), and next, formazan dye was dissolved in 100 μL of dimethyl sulfoxide (Sigma-Aldrich, St Louis, MO, USA). Absorbance was measured at 540 nm using a Wallac 1420 VICTOR microplate reader (PerkinElmer, Waltham, MA, USA).

HT29 cells = assay: MTT cytotoxicity assay, HT29; type: cell-based; settings: HT29, MTT, 24 h; for IC50: read-out: IC50 value
Source text: (§3) Control cells were not treated with the compounds.

DLD-1 cells = assay: MTT cytotoxicity assay, DLD-1; type: cell-based; settings: DLD-1, MTT, 24 h; for IC50: read-out: IC50 value
Source text: as §3

HCT116 cells = assay: MTT cytotoxicity assay, HCT116; type: cell-based; settings: HCT 116, MTT, 24 h; for IC50: read-out: IC50 value
Source text: as §3

SW1116 cells [2] = assay: MTT cytotoxicity assay, SW1116; settings: for IC50: read-out: IC50 value
Description: as §1, §2

CCD-841CoN cells = assay: in vitro; type: cell-based; settings: CCD-841CoN normal cells, MTT, 24 h; for IC50: read-out: IC50 value
Source text: as §3

RKO cells [3] = assay: Total antioxidant capacity (ABTS+), RKO; type: cell-based; settings: 10 µg/mL, 24 h
Description: (§4) In addition, two colorectal cancer cell lines, RKO and SW1116, were distinguished based on a different response to the EB5 derivative. To perform subsequent analyses, the selected CRC lines were treated with EB5 derivative at a concentration of 10 µg/mL for 24 h. Untreated cells were used as a negative control. Three biological replicates were performed.
(§5) To examine the antioxidant capacity of the cells as well as lipid peroxidation and to evaluate the activity of antioxidant enzymes, the cells were suspended in lysis buffer (containing 4 mg of […]™ Protease Inhibitor Cocktail and 10 µL of Phosphatase Inhibitor Cocktail 3 in 1 mL of PBS; Sigma-Aldrich, St Louis, MO, USA). Subsequently, the cells were placed in liquid nitrogen for 30 min, followed by storage at −80 °C until further analysis.
The ABTS+ radical cation was used to assess the total antioxidant capacity (TAC) of the tested cells. The principle of the method is based on the reduction of the formed blue-green chromophore ABTS+ as a result of the reaction of ABTS (Sigma-Aldrich, St Louis, MO, USA) with potassium persulphate (Sigma-Aldrich, St Louis, MO, USA). The degree of decolorization of the ABTS+ radical cation depends on the antioxidant activity of the cells and is determined as a function of concentration and time in relation to Trolox reactivity (TEAC-Trolox equivalent antioxidant capacity).

RKO cells [4] = assay: Lipid peroxidation, MDA assay, RKO; type: cell-based; settings: 10 µg/mL, 24 h
Description: (§6) In addition, two colorectal cancer cell lines, RKO and SW1116, were distinguished based on a different response to the EB5 derivative. […] Untreated cells were used as a negative control. Three biological replicates were performed. To examine the antioxidant capacity of the cells as well as lipid peroxidation and to evaluate the activity of antioxidant enzymes, the cells were suspended in lysis buffer (containing 4 mg of […]™ Protease Inhibitor Cocktail and 10 µL of Phosphatase Inhibitor Cocktail 3 in 1 mL of PBS; Sigma-Aldrich, St Louis, MO, USA). Subsequently, the cells were placed in liquid nitrogen for 30 min, followed by storage at −80 °C until further analysis. To assess the level of lipid peroxidation, the Malondialdehyde Assay Kit (Aoxre BioSciences, Burlingame, CA, USA) was used, according to the manufacturer’s recommendations.

SW1116 cells [5] = assay: Lipid peroxidation, MDA assay, SW1116; type: cell-based; settings: SW1116, 10 µg/mL, 24 h
Description: as §6

[6] = system: catalase (CAT) activity in RKO cells; assay: CAT activity in RKO cells; type: cell-based; settings: 10 µg/mL, 24 h
Description: as §4, §5
(§7) Superoxide dismutase (SOD), glutathione peroxidase (GPx) and catalase (CAT) activities were assessed using a commercially purchased Cayman Chemicals Superoxide Dismutase Assay Kit, a Cayman Chemicals Glutathione Peroxidase Assay Kit and a Catalase Assay Kit (Cayman Chemicals, Ann Arbor, MI, USA), respectively, according to the manufacturer’s recommendations and based on a previous study. […] The level of change in absorbance was measured spectrophotometrically at the appropriate wavelength for the assay, i.e., for SOD in the range 440–460 nm, for GPx at 340 nm and for CAT at 540 nm.

[7] = system: catalase (CAT) activity in SW1116 cells; assay: CAT activity in SW1116 cells; type: cell-based; settings: SW1116, 10 µg/mL, 24 h
Description: as §4, §5
Superoxide dismutase (SOD), glutathione peroxidase (GPx) and catalase (CAT) activities were assessed using a commercially purchased Cayman Chemicals Superoxide Dismutase Assay Kit, a Cayman Chemicals Glutathione Peroxidase Assay Kit and a Catalase Assay Kit (Cayman Chemicals, Ann Arbor, MI, USA), respectively, according to the manufacturer’s recommendations and based on a previous study. The cell supernatant from previously prepared cell lysates of the tested lines provided material for further analyses. The level of change in absorbance was measured spectrophotometrically at the appropriate wavelength for the assay, i.e., for SOD in the range 440–460 nm, for GPx at 340 nm and for CAT at 540 nm.

[8] = system: SOD1 gene expression in RKO cells; assay: SOD1 mRNA, real-time RT-qPCR, RKO; type: cell-based; settings: 10 µg/mL, 24 h
Description: as §4
(§8) Total RNA from treated cells was extracted using TRIzol reagent (Sigma-Aldrich, St Louis, MO, USA) according to the manufacturer’s instructions. The obtained RNA was assessed qualitatively and quantitatively by agarose gel electrophoresis and by spectrophotometric measurement using MaestroNano MN-913 (MaestroGen Inc., Las Vegas, NV, USA), respectively. The obtained extracts provided the starting material for the assessment of genes changes at the mRNA level.
(§9) Changes in the expression of SOD1, SOD2, CAT and GPX3 genes involved in antioxidant systems were assessed by real-time RT-qPCR using a LightCycler® 480 System apparatus (Roche, Basel, Switzerland). A commercially purchased GoTaq® 1-Step RT-qPCR System (Promega, Madison, WI, USA) was used, while the primers and reaction conditions were the same as in the previous study performed by Kruszniewska-Rajs et al.. GAPDH was used as the reference gene. The mRNA expression level studied genes were then determined by the 2^−ΔCt relative quantification method. All samples were tested in triplicate. The specificity of the reaction was evaluated based on the melting temperature curve, as well as using electrophoresis of the amplification products in a 2% agarose gel.

[9] = system: SOD2 gene expression in RKO cells; assay: SOD2 mRNA, real-time RT-qPCR, RKO; type: cell-based; settings: 10 µg/mL, 24 h
Description: as §4, §8, §9

[10] = system: CAT gene expression in RKO cells; assay: CAT mRNA, real-time RT-qPCR, RKO; type: cell-based; settings: 10 µg/mL, 24 h
Description: as §4, §8, §9

[11] = system: CAT gene expression in SW1116 cells; assay: CAT mRNA, real-time RT-qPCR, SW1116; type: cell-based; settings: SW1116, 10 µg/mL, 24 h
Description: as §4, §8, §9

Caco2 cells = assay: MTT cytotoxicity assay, Caco2; type: cell-based; settings: Homo sapiens, Caco-2; Caco2, MTT, 24 h; read-out: IC50 value
in vitro = type: cell-based; settings: human
Source text: as §3

[12] = system: superoxide dismutase (SOD) activity in RKO cells; assay: SOD activity in RKO cells; type: cell-based; settings: 10 µg/mL, 24 h
Description: as §4, §5, §7

[13] = system: SOD2 gene expression in SW1116 cells; assay: SOD2 mRNA, real-time RT-qPCR, SW1116; type: cell-based; settings: SW1116, 10 µg/mL, 24 h
Description: as §4, §8, §9

N.N.[Cl][Pt][Cl] [Cisplatin, cisplatin]
IC50 value (RKO cells [1]; MTT, 24 h): 6.35 µg/mL
IC50 (RKO cells [1]; read-out: IC50 value, MTT, 24 h): 21.2 µM
IC50 value (HT29 cells): >100 µg/mL
IC50 (HT29 cells): > 333 µM
IC50 value (DLD-1 cells): 27.72 µg/mL
IC50 (DLD-1 cells): 92.4 µM
IC50 value (HCT116 cells): 3.02 µg/mL
IC50 (HCT116 cells): 10.1 µM
IC50 value (SW1116 cells [2]; SW1116, MTT, 24 h): >100 µg/mL
IC50 (SW1116 cells [2]; SW1116, MTT, 24 h): > 333 µM
IC50 value (CCD-841CoN cells): 27.59 µg/mL
IC50 (CCD-841CoN cells): 91.9 µM
reduction in TAC compared to the control cells (RKO cells [3]): about 23.6%
MDA level compared to the control group (RKO cells [4]): did not cause changes
MDA level compared to 5FU-treated cells (SW1116 cells [5]): higher level of MDA
MDA level compared to betulin-treated cells (SW1116 cells [5]): higher level of MDA
MDA level compared to the control (SW1116 cells [5]): higher level of MDA
CAT activity compared to the betulin-treated cells [6]: slight decrease
catalase activity compared to cells treated with EB5 [7]: higher catalase activity
catalase activity compared to cells treated with betulin [7]: higher catalase activity
catalase activity compared to the control [7]: higher catalase activity
SOD1 gene expression vs. 5FU-treated cells [8]: statistically significant increase in expression
SOD1 gene expression vs. non-treated cells [8]: statistically significant increase in expression
SOD2 gene expression vs. 5FU-treated cells [9]: higher expression
SOD2 gene expression vs. untreated cells [9]: statistically significant increase in SOD2 gene expression
CAT gene expression vs. 5FU [10]: significant increase in expression
CAT gene expression vs. 5FU [11]: difference in the expression

C#CC(=O)OC[C@]12CC[C@@H](C(=C)C)[C@@H]1[C@H]1CC[C@@H]3[C@@]4(C)CC[C@H](O)C(C)(C)[C@@H]4CC[C@@]3(C)[C@]1(C)CC2 [EB5, 28-propynylobetulin]
viability at 10 µg/mL (RKO cells [1]; Homo sapiens, 24 h): ≥ 50%
IC50 (RKO cells [1]; Homo sapiens, 24 h, read-out: IC50 value): 12.2 µg/mL and 24.6 µM
IC50 (HT29 cells; Homo sapiens, HT-29): 8.25 µg/mL and 16.7 µM
IC50 (DLD-1 cells; Homo sapiens): 11.1 µg/mL and 22.4 µM
IC50 (HCT116 cells; Homo sapiens): 16.7 µg/mL and 33.7 µM
IC50 (Caco2 cells): 16.9 µg/mL and 34.2 µM
viability at 10 µg/mL (SW1116 cells [2]; Homo sapiens, SW 1116, 24 h): ≥ 50%
IC50 (SW1116 cells [2]; Homo sapiens, SW 1116, 24 h): 34.4 µg/mL and 69.5 µM
viability at 24 h, 100 μg/mL (in vitro): ≥ 50%
IC50 (CCD-841CoN cells; Homo sapiens): > 100 µg/mL and > 202 µM
increase in MDA levels compared to the control cells (RKO cells [4]): about 98.0%
MDA level compared to the control (SW1116 cells [5]): did not cause changes
SOD activity compared to cells treated with betulin [12]: modest increase
CAT activity compared to the betulin-treated cells [6]: slight decrease
catalase activity compared to the control [7]: did not cause changes
SOD2 gene expression vs. cisplatin [9]: significant decrease in SOD2 gene expression
SOD2 gene expression vs. 5FU [13]: Decreased SOD2 gene expression
SOD2 gene expression vs. cisplatin [13]: Decreased SOD2 gene expression
CAT gene expression vs. 5FU [10]: significant increase in expression
CAT gene expression vs. cisplatin [10]: significant decrease in expression
